Assay results: PubChem BioAssay AID192 (DTP/NCI, 2004)
Toxic doses and inconclusive results are not listed. Numbered stars: 1 amine (or outer) side, 2 acyl side, 3 side chain; on linkers, the order of the positions; unused ones are H or OH. Bridge positions count the residues as written; N and C are the ends. Square brackets hold non-standard residues; d marks the D form. Peptide text beside a SMILES is read from it. I, II: the chains in the order shown. Actinocin(1to9) = Cc1c2oc3c(C)ccc(C(=O)[*:2])c3nc-2c(C(=O)[*:1])c(N)c1=O; NMeV = CN[CH](C(=O)O)C(C)C; Sar = CNCC(=O)O

Test system: BDF1 mice, B16 melanoma ip, median survival T/C
Assay: NCI In Vivo Anticancer Drug Screen. Data for tumor model B16 Melanoma (intraperitoneal) in B6D2F1 (BDF1) mice
Conditions: endpoint: median survival time, higher = longer survival
Method in brief: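 Transplantable tumor model; survival or tumor size measured; reported as T/C, treated over vehicle control.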

[1] = dose: 5.0 mg/kg/injection, schedule: Q01DX009 (ip), vehicle: saline with Tween-80
[2] = dose: 200.0 mg/kg/injection, schedule: Q01DX009 (ip), vehicle: saline
[3] = dose: 50.0 mg/kg/injection, schedule: Q01DX009 (ip), vehicle: saline with Tween-80
[4] = dose: 100.0 mg/kg/injection, schedule: Q01DX009 (ip), vehicle: saline with Tween-80
[5] = dose: 200.0 mg/kg/injection, schedule: Q01DX009 (ip), vehicle: saline with Tween-80
[6] = dose: 25.0 mg/kg/injection, schedule: Q01DX009 (ip), vehicle: Klucel (hydroxypropylcellulose) (HPC)
[7] = dose: 50.0 mg/kg/injection, schedule: Q01DX009 (ip), vehicle: Klucel (hydroxypropylcellulose) (HPC)
[8] = dose: 100.0 mg/kg/injection, schedule: Q01DX009 (ip), vehicle: Klucel (hydroxypropylcellulose) (HPC)
[9] = dose: 100.0 mg/kg/injection, schedule: Q04DX003 (ip), vehicle: Klucel (hydroxypropylcellulose) (HPC)
[10] = dose: 200.0 mg/kg/injection, schedule: Q01DX009 (ip), vehicle: Klucel (hydroxypropylcellulose) (HPC)
[11] = dose: 200.0 mg/kg/injection, schedule: Q04DX003 (ip), vehicle: Klucel (hydroxypropylcellulose) (HPC)
[12] = dose: 400.0 mg/kg/injection, schedule: Q01DX009 (ip), vehicle: Klucel (hydroxypropylcellulose) (HPC)
[13] = dose: 400.0 mg/kg/injection, schedule: Q01DX009 (ip), vehicle: saline with Tween-80

c1ccc([P+](c2ccccc2)(c2ccccc2)c2ccccc2)cc1
T/C (dose: 0.13 mg/kg/injection, schedule: Q01DX009 (ip), vehicle: saline): 102 % of control
T/C (dose: 0.2 mg/kg/injection, schedule: Q01DX009 (ip), vehicle: saline): 102 % of control
T/C (dose: 0.3 mg/kg/injection, schedule: Q01DX009 (ip), vehicle: saline): 102 % of control
T/C (dose: 0.44 mg/kg/injection, schedule: Q01DX009 (ip), vehicle: saline): 113 % of control
T/C (dose: 0.63 mg/kg/injection, schedule: Q04DX003 (ip), vehicle: saline): 100 % of control
T/C (dose: 0.66 mg/kg/injection, schedule: Q01DX009 (ip), vehicle: saline): 110 % of control
T/C (dose: 1.0 mg/kg/injection, schedule: Q01DX009 (ip), vehicle: saline): 113 % of control
T/C (dose: 1.25 mg/kg/injection, schedule: Q01DX009 (ip), vehicle: saline with Tween-80): 97 % of control
T/C (dose: 1.25 mg/kg/injection, schedule: Q04DX003 (ip), vehicle: saline): 100 % of control
T/C (dose: 1.5 mg/kg/injection, schedule: Q01DX009 (ip), vehicle: saline): 113 % of control
T/C (dose: 2.5 mg/kg/injection, schedule: Q01DX009 (ip), vehicle: saline with Tween-80): 104 % of control
T/C (dose: 2.5 mg/kg/injection, schedule: Q04DX003 (ip), vehicle: saline): 102 % of control
T/C [1]: 111 % of control
T/C (dose: 5.0 mg/kg/injection, schedule: Q04DX003 (ip), vehicle: saline): 89 % of control

C[N+]1(C)C2CC(=O)CC1C1CC12 (configuration not stated) (tested in a mixture with another compound)
T/C (dose: 25.0 mg/kg/injection, schedule: Q01DX009 (ip), vehicle: saline): 102 % of control
T/C (dose: 50.0 mg/kg/injection, schedule: Q01DX009 (ip), vehicle: saline): 89 % of control
T/C (dose: 100.0 mg/kg/injection, schedule: Q01DX009 (ip), vehicle: saline): 99 % of control
T/C [2]: 100 % of control

O=S(=O)(O)O.[NH-]CC1(C[NH-])CCCCC1.[Pt+2]
T/C (dose: 8.0 mg/kg/injection, schedule: Q04DX003 (ip), vehicle: dextrose): 161 % of control

O=C(NC(Cc1ccccc1)C(=O)NC(Cc1c[nH]c2ccccc12)C(=O)O)OCc1ccccc1 (configuration not stated)
T/C [3]: 98 % of control
T/C [4]: 100 % of control
T/C [5]: 94 % of control

CN1CCC=C(C(=O)N2c3ccccc3Sc3ccc(Cl)cc32)C1
T/C (dose: 6.25 mg/kg/injection, schedule: Q01DX009 (ip), vehicle: saline): 96 % of control
T/C (dose: 12.5 mg/kg/injection, schedule: Q01DX009 (ip), vehicle: saline): 89 % of control

C[n+]1ccccc1/C=C/c1cccc([N+](=O)[O-])c1
T/C [1]: 110 % of control
T/C (dose: 5.0 mg/kg/injection, schedule: Q04DX003 (ip), vehicle: saline with Tween-80): 105 % of control
T/C (dose: 10.0 mg/kg/injection, schedule: Q01DX009 (ip), vehicle: saline with Tween-80): 100 % of control
T/C (dose: 20.0 mg/kg/injection, schedule: Q01DX009 (ip), vehicle: saline with Tween-80): 100 % of control
T/C (dose: 20.0 mg/kg/injection, schedule: Q04DX003 (ip), vehicle: saline with Tween-80): 89 % of control

O=C1CCC(N2C(=O)c3ccccc3C2=O)C(=O)N1 (configuration not stated)
T/C [6]: 100 % of control
T/C (dose: 25.0 mg/kg/injection, schedule: Q04DX003 (ip), vehicle: Klucel (hydroxypropylcellulose) (HPC)): 99 % of control
T/C [7]: 102 % of control
T/C (dose: 50.0 mg/kg/injection, schedule: Q04DX003 (ip), vehicle: Klucel (hydroxypropylcellulose) (HPC)): 106 % of control
T/C [8]: 94 % of control
T/C [9]: 94 % of control
T/C [10]: 100 % of control
T/C [11]: 99 % of control
T/C [12]: 102 % of control
T/C (dose: 400.0 mg/kg/injection, schedule: Q04DX003 (ip), vehicle: Klucel (hydroxypropylcellulose) (HPC)): 94 % of control

C/C(=N\NC(N)=O)C1=C(O)C(C(C)C)NC1=O (configuration not stated)
T/C [3]: 91 % of control
T/C [4]: 86 % of control
T/C [5]: 91 % of control
T/C [13]: 91 % of control

O=C1CC(NC(=O)OCc2ccccc2)C(=O)O1 (configuration not stated)
T/C (dose: 100.0 mg/kg/injection, schedule: Q01DX009 (ip), vehicle: alcohol): 111 % of control
T/C (dose: 200.0 mg/kg/injection, schedule: Q01DX009 (ip), vehicle: alcohol): 94 % of control

CCC(C)C1NC(=O)C(NC(=O)c2c3nc4c(C(=O)NC5C(=O)NC(C(C)CC)C(=O)N6CCCC6C(=O)N(C)CC(=O)N(C)C(C(C)C)C(=O)OC5C)ccc(C)c4oc-3c(C)c(=O)c2N)C(C)OC(=O)C(C(C)C)N(C)C(=O)CN(C)C(=O)C2CCCN2C1=O (configuration not stated) (I: TIP[Sar][NMeV] / II: TIP[Sar][NMeV]; ester I:1-I:C, II:1-II:C; linker I:N-II:N via Actinocin(1to9); configuration not given here)
T/C (dose: 0.2 mg/kg/injection, schedule: Q01DX001 (ip), vehicle: water): 120 % of control
T/C (dose: 0.4 mg/kg/injection, schedule: Q01DX001 (ip), vehicle: water): 114 % of control
T/C (dose: 0.8 mg/kg/injection, schedule: Q01DX001 (ip), vehicle: water): 123 % of control
T/C (dose: 12.5 micrograms/kg/injection, schedule: Q01DX009 (ip), vehicle: water): 108 % of control
T/C (dose: 25.0 micrograms/kg/injection, schedule: Q01DX009 (ip), vehicle: water): 119 % of control
T/C (dose: 75.0 micrograms/kg/injection, schedule: Q04DX003 (ip), vehicle: water): 115 % of control
T/C (dose: 150.0 micrograms/kg/injection, schedule: Q04DX003 (ip), vehicle: water): 114 % of control

COc1ccc(Cl)cc1NC(=O)c1ccccc1C(=O)O
T/C [8]: 100 % of control
T/C [10]: 94 % of control

CC(NC(C)c1ccccc1)c1ccccc1 (configuration not stated)
T/C [6]: 93 % of control
T/C [7]: 106 % of control
T/C [8]: 96 % of control

O=C(Nc1ccc(Cl)cc1)OCCN1CCOCC1
T/C [4]: 110 % of control
T/C [5]: 110 % of control
T/C [13]: 97 % of control

Cc1ccc(S(=O)(=O)N/N=C\c2cc(Cl)ccc2O)cc1
T/C [8]: 100 % of control
T/C [10]: 105 % of control
T/C [12]: 102 % of control

Cc1ccc(NS(=O)(=O)c2ccccc2)cc1Cl
T/C [10]: 90 % of control
T/C [12]: 88 % of control

Fc1cccc(/C=C2/c3cc(Cl)ccc3-c3c(Cl)cc(Cl)cc32)c1
T/C (dose: 6.25 mg/kg/injection, schedule: Q01DX009 (ip), vehicle: saline with Tween-80): 90 % of control
T/C (dose: 12.5 mg/kg/injection, schedule: Q01DX009 (ip), vehicle: saline with Tween-80): 93 % of control
T/C (dose: 25.0 mg/kg/injection, schedule: Q01DX009 (ip), vehicle: saline with Tween-80): 88 % of control

CCC[CH2][Hg][Cl]
T/C (dose: 0.75 mg/kg/injection, schedule: Q01DX009 (ip), vehicle: saline with Tween-80): 91 % of control
T/C (dose: 1.5 mg/kg/injection, schedule: Q01DX009 (ip), vehicle: saline with Tween-80): 92 % of control

CCC[CH2][Sn]1([CH2]CCC)[O]OC(c2ccccc2)[O]1 (configuration not stated)
T/C (dose: 0.19 mg/kg/injection, schedule: Q01DX009 (ip), vehicle: Klucel (hydroxypropylcellulose) (HPC)): 98 % of control
T/C (dose: 0.38 mg/kg/injection, schedule: Q01DX009 (ip), vehicle: Klucel (hydroxypropylcellulose) (HPC)): 87 % of control
T/C (dose: 0.75 mg/kg/injection, schedule: Q01DX009 (ip), vehicle: Klucel (hydroxypropylcellulose) (HPC)): 107 % of control
T/C (dose: 1.5 mg/kg/injection, schedule: Q01DX009 (ip), vehicle: Klucel (hydroxypropylcellulose) (HPC)): 102 % of control
T/C (dose: 3.0 mg/kg/injection, schedule: Q01DX009 (ip), vehicle: Klucel (hydroxypropylcellulose) (HPC)): 101 % of control
T/C (dose: 3.0 mg/kg/injection, schedule: Q01DX009 (ip), vehicle: saline with Tween-80): 102 % of control

O=c1[nH]cc(B(O)O)c(=O)[nH]1
T/C [2]: 118 % of control

CCC/C(=C\C(=O)O)CC
T/C [8]: 108 % of control
T/C [9]: 95 % of control
T/C [10]: 100 % of control
T/C [11]: 95 % of control
T/C [12]: 97 % of control
